This passage reports IC50 results from patent publication US20230303570A1, “KINASE INHIBITORS AND USES THEREOF” (ABM Therapeutics Corporation, priority 2020, published 2023).

One assay addresses T1, SRC (Homo sapiens, UniProt P12931).
T1 construct: purchased Carna Biosciences
Briefly: In vitro kinase assay, SRC (Caliper EZ Reader conversion). It counts as biochemical. The following applies: read-out: SRC IC50. As for the experimental part:
(§1) The effect of the compounds on the activity of SRC and PAK1 kinase were assessed. SRC and PAK1 kinase enzymes were obtained from Carna Biosciences.
Test compounds were dissolved in 100% DMSO to prepare a 20 mM stock. Compounds were stored in −20° C. and protected from light. […] Saracatinib was used as a positive control for the SRC assay, and FRAX597 was used as a positive control for the PAK1 assay. For the positive controls, a 3-fold serial dilution was made to achieve a total of 10 concentrations. 10 μL 1× Kinase buffer was used as the negative control.
First, 250 nL of the compounds at each dilution were transferred into wells of a 384-well plate. […] Then, 10 μL of enzyme mix was added to the 384-well plate, and the enzymes and compounds were pre-incubated at room temperature for 10 minutes. […] Then, 15 μL of substrate mix was added to a 384-well plate and reacted at room temperature for 30 min and 60 min. The reaction was stopped by adding 30 μL of the stop buffer, and the conversion rate was read using a Caliper EZ Reader.
(§2) Percent inhibition is calculated according to the following equation: […]
(§3) wherein “Conversion %_sample” is the conversion percentage value of the sample; “Conversion %_min” is the average conversion percentage value of the negative control; and “Conversion %_max” is the average conversion percentage value of the positive control.
(§4) The dose-response curve was fitted using GraphPad Prism software (version 5, […]), and the IC50 values for each compounds were calculated by log(inhibitor) vs. response using a variable slope program with the following formula:
(§5) Y=Bottom+(Top-Bottom)/(1+10^((Log IC50−X)*HillSlope))

In a further assay the target is PAK1 (Homo sapiens, UniProt Q13153). Kind of assay: In vitro kinase assay, PAK1 (Caliper EZ Reader conversion). The arrangement: purchased Carna Biosciences. It counts as biochemical. The procedure: as §1
PAK1, sequence (Q13153 whole entry): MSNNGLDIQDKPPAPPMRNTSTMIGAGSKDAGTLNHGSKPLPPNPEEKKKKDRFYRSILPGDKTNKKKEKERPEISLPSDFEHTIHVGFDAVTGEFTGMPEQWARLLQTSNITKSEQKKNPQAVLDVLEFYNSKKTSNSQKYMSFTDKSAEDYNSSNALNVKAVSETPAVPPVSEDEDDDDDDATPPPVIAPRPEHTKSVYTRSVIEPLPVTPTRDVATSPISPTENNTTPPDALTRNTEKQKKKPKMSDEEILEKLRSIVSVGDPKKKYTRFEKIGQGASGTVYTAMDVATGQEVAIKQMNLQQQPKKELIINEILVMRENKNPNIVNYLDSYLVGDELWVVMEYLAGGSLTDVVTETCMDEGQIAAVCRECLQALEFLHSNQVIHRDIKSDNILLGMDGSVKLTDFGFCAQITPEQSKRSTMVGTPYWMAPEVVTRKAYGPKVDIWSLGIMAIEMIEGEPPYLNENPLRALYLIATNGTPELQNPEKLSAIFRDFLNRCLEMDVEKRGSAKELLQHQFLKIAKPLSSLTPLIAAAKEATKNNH
Test compounds were dissolved in 100% DMSO to prepare a 20 mM stock. Compounds were stored in −20° C. and protected from light. A 100×solution of the compounds were prepared, from which 4-fold serial dilutions was made to achieve a total of 6 concentrations. Saracatinib was used as a positive control for the SRC assay, and FRAX597 was used as a positive control for the PAK1 assay. For the positive controls, a 3-fold serial dilution was made to achieve a total of 10 concentrations. 10 μL 1× Kinase buffer was used as the negative control.
First, 250 nL of the compounds at each dilution were transferred into wells of a 384-well plate. The PAK1 and SRC kinases were diluted to a 2.5×final concentration with 1×Kinase buffer. Then, 10 μL of enzyme mix was added to the 384-well plate, and the enzymes and compounds were pre-incubated at room temperature for 10 minutes. […] Then, 15 μL of substrate mix was added to a 384-well plate and reacted at room temperature for 30 min and 60 min. The reaction was stopped by adding 30 μL of the stop buffer, and the conversion rate was read using a Caliper EZ Reader.
as §2, §3, §4, §5

SMILES strings stand for the structures.

T1 sequence (P12931 whole entry): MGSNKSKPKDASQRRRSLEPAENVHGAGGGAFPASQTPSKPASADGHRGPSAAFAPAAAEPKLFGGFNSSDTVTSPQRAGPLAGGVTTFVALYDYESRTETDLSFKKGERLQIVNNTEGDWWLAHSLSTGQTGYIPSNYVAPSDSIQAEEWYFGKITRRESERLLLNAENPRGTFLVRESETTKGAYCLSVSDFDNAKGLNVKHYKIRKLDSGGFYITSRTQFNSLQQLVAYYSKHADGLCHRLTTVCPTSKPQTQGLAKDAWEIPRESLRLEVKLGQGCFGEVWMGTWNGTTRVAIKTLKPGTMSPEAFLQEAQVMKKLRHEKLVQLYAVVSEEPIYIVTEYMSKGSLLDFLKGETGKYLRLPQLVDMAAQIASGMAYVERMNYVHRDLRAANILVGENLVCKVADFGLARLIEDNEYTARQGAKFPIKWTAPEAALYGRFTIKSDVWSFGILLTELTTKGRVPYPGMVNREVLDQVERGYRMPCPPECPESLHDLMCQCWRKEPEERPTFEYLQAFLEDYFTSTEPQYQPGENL

A word on the IC50: it is the point on the concentration scale where inhibition reaches its midpoint. Turning to `Fc1cc(Nc2ncc3c(n2)N2CCN=C2C(c2ccccc2Cl)=C3)ccc1N1CCNCC1` [Compound 11, 6-(2-chlorophenyl)-N-(3-fluoro-4-(piperazin-1-yl)phenyl)-8,9-dihydroimidazo[1′,2′:1,6]pyrido[2,3-d]pyrimidin-2-amine], the figures for the IC50 at SRC and against PAK1 were less than 0.1 µM and 0.1 to 10 µM, respectively.
For `Fc1cc(N2CCNCC2)ccc1Nc1ncc2c(n1)N1CCN=C1C(c1ccccc1Cl)=C2` [Compound 12, 6-(2-chlorophenyl)-N-(2-fluoro-4-(piperazin-1-yl)phenyl)-8,9-dihydroimidazo[1′,2′:1,6]pyrido[2,3-d]pyrimidin-2-amine], in that order: less than 0.1 µM and 0.1 to 10 µM.
As for `OCc1cccc(Nc2ncc3c(n2)N2CCN=C2C(c2ccccc2Cl)=C3)c1` [Compound 13, (3-((6-(2-chlorophenyl)-8,9-dihydroimidazo[1′,2′:1,6]pyrido[2,3-d]pyrimidin-2-yl)amino)phenyl)methanol], the IC50 at SRC was less than 0.1 µM; against PAK1, 0.1 to 10 µM.
For `Cn1nccc1Nc1ncc2c(n1)N1CCN=C1C(c1ccccc1Cl)=C2` [Compound 14, 6-(2-chlorophenyl)-N-(1-methyl-1H-pyrazol-5-yl)-8,9-dihydroimidazo[1′,2′:1,6]pyrido[2,3-d]pyrimidin-2-amine], in that order: greater than 10 µM and greater than 10 µM.
For `Clc1ccccc1C1=Cc2cnc(Nc3cccnc3)nc2N2CCN=C12` [Compound 15, 6-(2-chlorophenyl)-N-(pyridin-3-yl)-8,9-dihydroimidazo[1′,2′:1,6]pyrido[2,3-d]pyrimidin-2-amine], in that order: 0.1 to 10 µM and greater than 10 µM.
The matching figures for `Clc1ccccc1C1=Cc2cnc(Nc3ccncc3)nc2N2CCN=C12` [Compound 16, 6-(2-chlorophenyl)-N-(pyridin-4-yl)-8,9-dihydroimidazo[1′,2′:1,6]pyrido[2,3-d]pyrimidin-2-amine]: 0.1 to 10 µM and greater than 10 µM.
With `COc1cccc(Nc2ncc3c(n2)N2CCN=C2C(c2ccccc2Cl)=C3)c1` [Compound 17, 6-(2-chlorophenyl)-N-(3-methoxyphenyl)-8,9-dihydroimidazo[1′,2′:1,6]pyrido[2,3-d]pyrimidin-2-amine], the values for the IC50 at SRC and against PAK1 were less than 0.1 µM and greater than 10 µM, respectively.
For `CSc1cccc(Nc2ncc3c(n2)N2CCN=C2C(c2ccccc2Cl)=C3)c1` [Compound 18, 6-(2-chlorophenyl)-N-(3-(methylthio)phenyl)-8,9-dihydroimidazo[1′,2′:1,6]pyrido[2,3-d]pyrimidin-2-amine], in that order: less than 0.1 µM and greater than 10 µM.
Turning to `Fc1ccc(Nc2ncc3c(n2)N2CCN=C2C(c2ccccc2Cl)=C3)cc1` [Compound 19, 6-(2-chlorophenyl)-N-(4-fluorophenyl)-8,9-dihydroimidazo[1′,2′:1,6]pyrido[2,3-d]pyrimidin-2-amine], the IC50 on SRC is less than 0.1 µM; against PAK1, greater than 10 µM.
Take `Cc1ccc(Nc2ncc3c(n2)N2CCN=C2C(c2ccccc2Cl)=C3)cc1F` [Compound 20, 6-(2-chlorophenyl)-N-(3-fluoro-4-methylphenyl)-8,9-dihydroimidazo[1′,2′:1,6]pyrido[2,3-d]pyrimidin-2-amine]: the values for the IC50 at SRC and at PAK1 were less than 0.1 µM and greater than 10 µM, respectively.
For `Clc1ccccc1C1=Cc2cnc(NC3COC3)nc2N2CCN=C12` [Compound 21, 6-(2-chlorophenyl)-N-(oxetan-3-yl)-8,9-dihydroimidazo[1′,2′:1,6]pyrido[2,3-d]pyrimidin-2-amine], in that order: greater than 10 µM and greater than 10 µM.
Consider `CN(C)CCOc1ccc(Nc2ncc3c(n2)N2CCN=C2C(c2ccccc2Cl)=C3)cc1` [Compound 22, 6-(2-chlorophenyl)-N-(4-(2-(dimethylamino)ethoxy)phenyl)-8,9-dihydroimidazo[1′,2′:1,6]pyrido[2,3-d]pyrimidin-2-amine], for which the values for the IC50 on SRC and against PAK1 were less than 0.1 µM and 0.1 to 10 µM, respectively.
The matching figures for `CNc1ncc2c(n1)N1CCN=C1C(c1ccc(N3CCN(C)C3=O)cc1Cl)=C2` [Compound 23, 1-(3-chloro-4-(2-(methylamino)-8,9-dihydroimidazo[1′,2′:1,6]pyrido[2,3-d]pyrimidin-6-yl)phenyl)-3-methylimidazolidin-2-one]: greater than 10 µM and 0.1 to 10 µM.
In the case of `CCNc1ncc2c(n1)N1CCN=C1C(c1ccc(-n3ccnc(C)c3=O)cc1Cl)=C2` [Compound 24, 1-(3-chloro-4-(2-(ethylamino)-8,9-dihydroimidazo[1′,2′:1,6]pyrido[2,3-d]pyrimidin-6-yl)phenyl)-3-methylpyrazin-2(1H)-one], the figures for the IC50 on SRC and at PAK1 were greater than 10 µM and 0.1 to 10 µM, respectively.
On to `CNc1ncc2c(n1)N1CCN=C1C(c1ccc(-c3cncc(C)n3)cc1Cl)=C2` [Compound 25, 6-(2-chloro-4-(6-methylpyrazin-2-yl)phenyl)-N-methyl-8,9-dihydroimidazo[1′,2′:1,6]pyrido[2,3-d]pyrimidin-2-amine], for which the figures for the IC50 on SRC and against PAK1 were greater than 10 µM and 0.1 to 10 µM, respectively.
`Fc1cc(Nc2ncc3c(n2)N2CCN=C2C(c2ccc(Cl)cc2)=C3)ccc1N1CCNCC1` [Compound 26, 6-(4-chlorophenyl)-N-(3-fluoro-4-(piperazin-1-yl)phenyl)-8,9-dihydroimidazo[1′,2′:1,6]pyrido[2,3-d]pyrimidin-2-amine]: the IC50 is less than 0.1 µM on SRC and 0.1 to 10 µM against PAK1.
Take `Fc1cc(Nc2ncc3c(n2)N2CCN=C2C(c2ccccc2)=C3)ccc1N1CCNCC1` [Compound 27, N-(3-fluoro-4-(piperazin-1-yl)phenyl)-6-phenyl-8,9-dihydroimidazo[1′,2′:1,6]pyrido[2,3-d]pyrimidin-2-amine]: the figures for the 50% inhibitory concentration (IC50) on SRC and against PAK1 were less than 0.1 µM and greater than 10 µM, respectively.
On to `Fc1cc(N2CCNCC2)ccc1Nc1ncc2c(n1)N1CCN=C1C(c1ccc(Cl)cc1)=C2` [Compound 28, 6-(4-chlorophenyl)-N-(2-fluoro-4-(piperazin-1-yl)phenyl)-8,9-dihydroimidazo[1′,2′:1,6]pyrido[2,3-d]pyrimidin-2-amine], for which the IC50 at SRC is 0.1 to 10 µM; against PAK1, greater than 10 µM.
On to `Fc1cc(N2CCNCC2)ccc1Nc1ncc2c(n1)N1CCN=C1C(c1ccccc1)=C2` [Compound 29, N-(2-fluoro-4-(piperazin-1-yl)phenyl)-6-phenyl-8,9-dihydroimidazo[1′,2′:1,6]pyrido[2,3-d]pyrimidin-2-amine], for which the IC50 is 0.1 to 10 µM at SRC and greater than 10 µM against PAK1.
The matching figures for `COc1ccccc1C1=Cc2cnc(Nc3ccc(N4CCNCC4)cc3F)nc2N2CCN=C12` [Compound 31, N-(2-fluoro-4-(piperazin-1-yl)phenyl)-6-(2-methoxyphenyl)-8,9-dihydroimidazo[1′,2′:1,6]pyrido[2,3-d]pyrimidin-2-amine]: 0.1 to 10 µM and greater than 10 µM.
The matching figures for `COc1nc(N2CCNCC2)ccc1Nc1ncc2c(n1)N1CCN=C1C(c1ccc(Cl)cc1Cl)=C2` [Compound 35, 6-(2,4-dichlorophenyl)-N-(2-methoxy-6-(piperazin-1-yl)pyridin-3-yl)-8,9-dihydroimidazo[1′,2′:1,6]pyrido[2,3-d]pyrimidin-2-amine]: 0.1 to 10 µM and 0.1 to 10 µM.
For `COc1nc(N2CCNCC2)ccc1Nc1ncc2c(n1)N1CCN=C1C(c1ccc(Cl)cc1)=C2` [Compound 36, 6-(4-chlorophenyl)-N-(2-methoxy-6-(piperazin-1-yl)pyridin-3-yl)-8,9-dihydroimidazo[1′,2′:1,6]pyrido[2,3-d]pyrimidin-2-amine], in that order: 0.1 to 10 µM and greater than 10 µM.
For `COc1nc(N2CCNCC2)ccc1Nc1ncc2c(n1)N1CCN=C1C(c1ccccn1)=C2` [Compound 39, N-(2-methoxy-6-(piperazin-1-yl)pyridin-3-yl)-6-(pyridin-2-yl)-8,9-dihydroimidazo[1′,2′:1,6]pyrido[2,3-d]pyrimidin-2-amine], the IC50 on SRC and against PAK1 was greater than 10 µM each time.
Take `COc1nc(N2CCNCC2)ccc1Nc1ncc2c(n1)N1CCN=C1C(C#Cc1cccnc1)=C2` [Compound 40, N-(2-methoxy-6-(piperazin-1-yl)pyridin-3-yl)-6-(pyridin-3-ylethynyl)-8,9-dihydroimidazo[1′,2′:1,6]pyrido[2,3-d]pyrimidin-2-amine]: the IC50 on SRC and against PAK1 was greater than 10 µM throughout.
